Species: Rattus norvegicus
Assay: Open TG-GATES - Regimen: Daily Repeat
Format: toxicity, organism-based, Sprague-Dawley
Design: regimen Daily Repeat, gender Male, age 6 weeks
Conditions: in vivo, po, route gavage; for TC / TG / TP / gamma-GTP / A/G / ALP / ALT / AST / BUN / CRE / Ca / Cl / GLC / IP / K / LDH / Na / PL / RALB: tissue Plasma; for APTT / Bas / Eos / Fbg / Hb / Ht / Lym / MCH / MCHC / MCV / Mono / Neu / PT / Plat / RBC / Ret / WBC: tissue Blood; for KIDNEY_L / KIDNEY_R / KIDNEY_TOTAL: tissue Kidney; for LIVER: tissue Liver
[1] = 100 mg/kg, […], dose level Low, time 28 day
[2] = 300 mg/kg, 72 h, dose level Middle, time 3 day
[3] = 300 mg/kg, […], dose level Middle, time 7 day
[4] = 300 mg/kg, […], dose level Middle, time 14 day
[5] = 300 mg/kg, […], dose level Middle, time 28 day

Structure (SMILES): O=C(O)c1ccccc1Nc1ccccc1 [FENAMIC ACID]
- TC [1]: 76.6 mg/dL
- TG [1]: 129.6 mg/dL
- TP [1]: 6.2 g/dL
- gamma-GTP [1]: 1 IU/L
- TERMINAL_BW [2]: 241.8 g
- APTT [2]: 15.8 s
- Bas [2]: 0.4%
- Eos [2]: 1%
- Fbg [2]: 293.6 mg/dL
- Hb [2]: 13.4 g/dL
- Ht [2]: 40.1%
- Lym [2]: 74.2%
- MCH [2]: 20.9 pg
- MCHC [2]: 33.4%
- MCV [2]: 62.8 fL
- Mono [2]: 2.8%
- Neu [2]: 21.8%
- PT [2]: 14 s
- Plat [2]: 137.1 x10_4/uL
- RBC [2]: 639.6 x10_4/ul
- Ret [2]: 6.8%
- WBC [2]: 91.3 x10_2/uL
- KIDNEY_L [2]: 1 g
- KIDNEY_R [2]: 1 g
- KIDNEY_TOTAL [2]: 1.9 g
- LIVER [2]: 12 g
- A/G [2]: 0.9
- ALP [2]: 1538.8 IU/L
- ALT [2]: 37.4 IU/L
- AST [2]: 64.8 IU/L
- BUN [2]: 14.2 mg/dL
- CRE [2]: 0.2 mg/dL
- Ca [2]: 11.6 mg/dL
- Cl [2]: 105.8 meq/L
- GLC [2]: 183 mg/dL
- IP [2]: 6.4 mg/dL
- K [2]: 4.3 meq/L
- LDH [2]: 119.8 IU/L
- Na [2]: 142.8 meq/L
- PL [2]: 156 mg/dL
- RALB [2]: 2.7 g/dL
- TC [2]: 82.4 mg/dL
- TG [2]: 99.4 mg/dL
- TP [2]: 5.7 g/dL
- gamma-GTP [2]: 1.6 IU/L
- TERMINAL_BW [3]: 275.7 g
- TERMINAL_BW [4]: 344.9 g
- TERMINAL_BW [5]: 435 g
- APTT [3]: 16.6 s
- Bas [3]: 0.6%
- Eos [3]: 1.2%
- Fbg [3]: 313 mg/dL
- Hb [3]: 13.6 g/dL
- Ht [3]: 40.4%
- Lym [3]: 80.6%
- MCH [3]: 20.8 pg
- MCHC [3]: 33.7%
- MCV [3]: 61.5 fL
- Mono [3]: 2.4%
- Neu [3]: 15.2%
- PT [3]: 13.9 s
- Plat [3]: 137.6 x10_4/uL
- RBC [3]: 656.8 x10_4/ul
- Ret [3]: 6.2%
- WBC [3]: 89.7 x10_2/uL
- APTT [4]: 15.8 s
- Bas [4]: 0.8%
- Eos [4]: 0.8%
- Fbg [4]: 296 mg/dL
- Hb [4]: 14.4 g/dL
- Ht [4]: 42.2%
- Lym [4]: 79.8%
- MCH [4]: 20.1 pg
- MCHC [4]: 34.2%
- MCV [4]: 58.6 fL
- Mono [4]: 2.2%
- Neu [4]: 16.4%
- PT [4]: 13.8 s
- Plat [4]: 131.5 x10_4/uL
- RBC [4]: 719.6 x10_4/ul
- Ret [4]: 4.7%
- WBC [4]: 104.7 x10_2/uL
- APTT [5]: 17.6 s
- Bas [5]: 0.4%
- Eos [5]: 1.4%
- Fbg [5]: 314.2 mg/dL
- Hb [5]: 14.8 g/dL
- Ht [5]: 42.7%
- Lym [5]: 79.8%
- MCH [5]: 18.8 pg
- MCHC [5]: 34.7%
- MCV [5]: 54.1 fL
- Mono [5]: 2.6%
- Neu [5]: 15.8%
- PT [5]: 14.1 s
- Plat [5]: 119.3 x10_4/uL
- RBC [5]: 789.8 x10_4/ul
- Ret [5]: 2.7%
- WBC [5]: 92.3 x10_2/uL
- KIDNEY_L [3]: 1.3 g
- KIDNEY_R [3]: 1.2 g
- KIDNEY_TOTAL [3]: 2.5 g
- KIDNEY_L [4]: 1.4 g
- KIDNEY_R [4]: 1.4 g
- KIDNEY_TOTAL [4]: 2.7 g
- KIDNEY_L [5]: 1.5 g
- KIDNEY_R [5]: 1.5 g
- KIDNEY_TOTAL [5]: 3 g
- LIVER [3]: 13.4 g
- LIVER [4]: 16.2 g
- LIVER [5]: 19 g
- A/G [3]: 0.9
- ALP [3]: 1312 IU/L
- ALT [3]: 36.6 IU/L
- AST [3]: 63.4 IU/L
- BUN [3]: 26.8 mg/dL
- CRE [3]: 0.3 mg/dL
- Ca [3]: 11.8 mg/dL
- Cl [3]: 103.8 meq/L
- GLC [3]: 185 mg/dL
- IP [3]: 7 mg/dL
- K [3]: 4.6 meq/L
- LDH [3]: 108 IU/L
- Na [3]: 143.6 meq/L
- PL [3]: 150.4 mg/dL
- RALB [3]: 2.8 g/dL
- TC [3]: 80.8 mg/dL
- TG [3]: 91.6 mg/dL
- TP [3]: 6 g/dL
- gamma-GTP [3]: 1.6 IU/L
- A/G [4]: 0.8
- ALP [4]: 1463.6 IU/L
- ALT [4]: 36.8 IU/L
- AST [4]: 58.4 IU/L
- BUN [4]: 15.8 mg/dL
- CRE [4]: 0.3 mg/dL
- Ca [4]: 11.3 mg/dL
- Cl [4]: 104 meq/L
- GLC [4]: 178 mg/dL
- IP [4]: 6.5 mg/dL
- K [4]: 4 meq/L
- LDH [4]: 102.2 IU/L
- Na [4]: 144.2 meq/L
- PL [4]: 160.8 mg/dL
- RALB [4]: 2.8 g/dL
- TC [4]: 80.8 mg/dL
- TG [4]: 117.2 mg/dL
- TP [4]: 6.2 g/dL
- gamma-GTP [4]: 1.2 IU/L
- A/G [5]: 0.8
- ALP [5]: 942.2 IU/L
- ALT [5]: 31 IU/L
- AST [5]: 53.2 IU/L
- BUN [5]: 15.6 mg/dL
- CRE [5]: 0.3 mg/dL
- Ca [5]: 11.3 mg/dL
- Cl [5]: 103.8 meq/L
- GLC [5]: 186.6 mg/dL
- IP [5]: 6.7 mg/dL
- K [5]: 4 meq/L
- LDH [5]: 107.6 IU/L
- Na [5]: 144.6 meq/L
- PL [5]: 161.8 mg/dL
- RALB [5]: 2.9 g/dL
- TC [5]: 82.2 mg/dL
- TG [5]: 100.8 mg/dL
